Measurements published in ChEMBL document CHEMBL2203217, “Prohormone-substrate peptide sequence recognition by peptidylglycine α-amidating monooxygenase and its reflection in increased glycolate inhibitor potency” (Bioorg Med Chem Lett, 2012).

Tests used:
[1] = biological target: T1, Peptidyl-glycine alpha-amidating monooxygenase (Homo sapiens, UniProt P19021); assay: Competitive inhibition of secreted PAM in human DMS53 cell culture medium using as(R)-Tyr-(S)-Val-Gly as substrate after 2 hrs by HPLC analysis; set-up: species or system DMS-53
T1 sequence (P19021 whole entry): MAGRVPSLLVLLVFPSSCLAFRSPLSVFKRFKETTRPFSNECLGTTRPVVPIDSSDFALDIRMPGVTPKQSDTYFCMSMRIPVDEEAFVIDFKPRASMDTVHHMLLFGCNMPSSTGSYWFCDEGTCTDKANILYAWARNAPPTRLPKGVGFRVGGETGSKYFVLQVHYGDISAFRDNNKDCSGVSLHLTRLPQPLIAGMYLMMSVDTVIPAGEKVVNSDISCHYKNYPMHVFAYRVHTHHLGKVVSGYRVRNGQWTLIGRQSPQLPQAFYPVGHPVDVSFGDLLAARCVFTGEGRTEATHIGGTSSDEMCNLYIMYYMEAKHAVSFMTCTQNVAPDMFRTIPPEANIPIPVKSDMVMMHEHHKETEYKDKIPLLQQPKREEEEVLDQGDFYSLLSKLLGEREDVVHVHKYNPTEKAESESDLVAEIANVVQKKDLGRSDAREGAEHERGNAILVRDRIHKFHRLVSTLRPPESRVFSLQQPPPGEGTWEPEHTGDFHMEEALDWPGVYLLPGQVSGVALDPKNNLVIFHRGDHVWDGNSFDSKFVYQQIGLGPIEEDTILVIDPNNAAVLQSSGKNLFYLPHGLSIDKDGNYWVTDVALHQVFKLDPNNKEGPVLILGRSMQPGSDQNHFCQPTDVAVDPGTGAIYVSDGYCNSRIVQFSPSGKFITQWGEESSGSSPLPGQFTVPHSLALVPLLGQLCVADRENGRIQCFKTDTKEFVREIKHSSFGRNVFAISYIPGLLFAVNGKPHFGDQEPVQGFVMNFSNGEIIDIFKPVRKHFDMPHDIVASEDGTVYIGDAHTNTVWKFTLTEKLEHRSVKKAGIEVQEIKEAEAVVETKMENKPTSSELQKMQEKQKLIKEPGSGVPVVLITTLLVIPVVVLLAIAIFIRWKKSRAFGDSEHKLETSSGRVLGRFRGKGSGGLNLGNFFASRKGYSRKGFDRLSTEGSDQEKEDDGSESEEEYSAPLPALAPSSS

[2] = biological target: T1, Peptidyl-glycine alpha-amidating monooxygenase; assay: Competitive inhibition of PAM in human DMS53 cells using as(R)-Tyr-(S)-Val-Gly as substrate after 2 hrs by HPLC analysis; assay type: cell-based, DMS-53

Row | IC50 [1] [µM] | IC50 [2] [µM] | SMILES
1 | 500 | 600 | O=C(O)COC(=O)[C@@H]1CCCN1
2 | 290 | 370 | C[C@H](N)C(=O)N1CCC[C@H]1C(=O)OCC(=O)O
